In ChEMBL document CHEMBL4507269, “Data for DCP probe BAY-386” (2021):

Columns and labels:
[1] = target: Mast/stem cell growth factor receptor Kit (Homo sapiens) (UniProt P10721); conditions: Compound concentration 1000.0 nM
[2] = target: Protein kinase C iota type (Homo sapiens) (UniProt P41743); conditions: Compound concentration 1000.0 nM
[3] = target: Aurora kinase C (Homo sapiens) (UniProt Q9UQB9); conditions: Compound concentration 1000.0 nM
[4] = test system: Hepatocyte growth factor receptor (Homo sapiens), P08581 [Y1235D]; conditions: Compound concentration 1000.0 nM
[5] = target: Tyrosine-protein kinase ZAP-70 (Homo sapiens) (UniProt P43403); conditions: Compound concentration 1000.0 nM
[6] = target: Serine/threonine-protein kinase TBK1 (Homo sapiens) (UniProt Q9UHD2); conditions: Compound concentration 1000.0 nM
[7] = target: Ribosomal protein S6 kinase alpha-2 (Homo sapiens) (UniProt Q15349); conditions: Compound concentration 1000.0 nM
[8] = target: Serine/threonine-protein kinase DCLK3 (Homo sapiens) (UniProt Q9C098); conditions: Compound concentration 1000.0 nM
[9] = target: Serine/threonine-protein kinase tousled-like 1 (Homo sapiens) (UniProt Q9UKI8); conditions: Compound concentration 1000.0 nM
[10] = target: Mitogen-activated protein kinase kinase kinase 2 (Homo sapiens) (UniProt Q9Y2U5); conditions: Compound concentration 1000.0 nM
[11] = target: Casein kinase II subunit alpha' (Homo sapiens) (UniProt P19784); conditions: Compound concentration 1000.0 nM
[12] = test system: Hepatocyte growth factor receptor (Homo sapiens), P08581 [M1250T]; conditions: Compound concentration 1000.0 nM
[13] = target: Tyrosine-protein kinase Mer (Homo sapiens) (UniProt Q12866); conditions: Compound concentration 1000.0 nM
[14] = target: Tyrosine-protein kinase Srms (Homo sapiens) (UniProt Q9H3Y6); conditions: Compound concentration 1000.0 nM
[15] = target: Interleukin-1 receptor-associated kinase 4 (Homo sapiens) (UniProt Q9NWZ3); conditions: Compound concentration 1000.0 nM
[16] = target: NUAK family SNF1-like kinase 1 (Homo sapiens) (UniProt O60285); conditions: Compound concentration 1000.0 nM
[17] = test system: Mast/stem cell growth factor receptor Kit (Homo sapiens), P10721 [V559D]; conditions: Compound concentration 1000.0 nM
[18] = target: Mitogen-activated protein kinase kinase kinase 19 (Homo sapiens) (UniProt Q56UN5); conditions: Compound concentration 1000.0 nM
[19] = target: Tyrosine-protein kinase Fes/Fps (Homo sapiens) (UniProt P07332); conditions: Compound concentration 1000.0 nM
[20] = target: T1, Alpha-1A adrenergic receptor (Homo sapiens) (UniProt P35348); conditions: Compound concentration 10.0 uM
T1 sequence (whole entry): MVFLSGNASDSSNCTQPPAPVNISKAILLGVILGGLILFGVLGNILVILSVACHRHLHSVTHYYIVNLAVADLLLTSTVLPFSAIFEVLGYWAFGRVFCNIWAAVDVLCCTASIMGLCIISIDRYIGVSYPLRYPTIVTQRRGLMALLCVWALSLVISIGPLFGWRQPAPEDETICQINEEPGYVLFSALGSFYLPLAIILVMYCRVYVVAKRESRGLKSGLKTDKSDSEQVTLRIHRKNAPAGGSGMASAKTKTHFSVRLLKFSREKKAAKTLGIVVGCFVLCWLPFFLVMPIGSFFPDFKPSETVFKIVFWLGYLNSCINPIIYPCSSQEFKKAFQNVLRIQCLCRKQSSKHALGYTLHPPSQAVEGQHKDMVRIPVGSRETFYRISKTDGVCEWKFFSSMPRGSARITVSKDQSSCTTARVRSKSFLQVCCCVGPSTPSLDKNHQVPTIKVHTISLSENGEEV

[21] = target: Testis-specific serine/threonine-protein kinase 1 (Homo sapiens) (UniProt Q9BXA7); conditions: Compound concentration 1000.0 nM
[22] = target: Mitogen-activated protein kinase 3 (Homo sapiens) (UniProt P27361); conditions: Compound concentration 1000.0 nM
[23] = test system: Phosphatidylinositol 4,5-bisphosphate 3-kinase catalytic subunit alpha isoform (Homo sapiens), P42336 [E545K]; conditions: Compound concentration 1000.0 nM
[24] = target: Mitogen-activated protein kinase kinase kinase 20 (Homo sapiens) (UniProt Q9NYL2); conditions: Compound concentration 1000.0 nM
[25] = target: Tyrosine-protein kinase JAK1 (Homo sapiens) (UniProt P23458); conditions: Compound concentration 1000.0 nM
[26] = target: Ephrin type-A receptor 4 (Homo sapiens) (UniProt P54764); conditions: Compound concentration 1000.0 nM
[27] = test system: Receptor-type tyrosine-protein kinase FLT3 (Homo sapiens), P36888 [UNDEFINED MUTATION]; conditions: Compound concentration 1000.0 nM
[28] = target: Cyclin-dependent kinase 8 (Homo sapiens) (UniProt P49336); conditions: Compound concentration 1000.0 nM
[29] = target: Serine/threonine-protein kinase RIO2 (Homo sapiens) (UniProt Q9BVS4); conditions: Compound concentration 1000.0 nM
[30] = target: Phosphatidylinositol 4-phosphate 3-kinase C2 domain-containing subunit beta (Homo sapiens) (UniProt O00750); conditions: Compound concentration 1000.0 nM
[31] = target: GABA-A receptor; anion channel (Rattus norvegicus) (UniProt O09028+P15431+P18506+P18508+P19969+P20236+P23574+P23576+P28471+P28473+P30191+P62813+P63079+P63138+Q91ZM7+Q9ES14); conditions: Compound concentration 10.0 uM
[32] = target: Bone morphogenetic protein receptor type-1B (Homo sapiens) (UniProt O00238); conditions: Compound concentration 1000.0 nM
[33] = target: Interleukin-1 receptor-associated kinase 1 (Homo sapiens) (UniProt P51617); conditions: Compound concentration 1000.0 nM
[34] = target: Serine/threonine-protein kinase 38-like (Homo sapiens) (UniProt Q9Y2H1); conditions: Compound concentration 1000.0 nM
[35] = test system: Epidermal growth factor receptor (Homo sapiens), P00533 [L858R]; conditions: Compound concentration 1000.0 nM
[36] = target: Insulin receptor-related protein (Homo sapiens) (UniProt P14616); conditions: Compound concentration 1000.0 nM
[37] = target: Receptor tyrosine-protein kinase erbB-4 (Homo sapiens) (UniProt Q15303); conditions: Compound concentration 1000.0 nM

Ribosomal protein S6 kinase alpha-2 (Homo sapiens), sequence (Q15349 whole entry): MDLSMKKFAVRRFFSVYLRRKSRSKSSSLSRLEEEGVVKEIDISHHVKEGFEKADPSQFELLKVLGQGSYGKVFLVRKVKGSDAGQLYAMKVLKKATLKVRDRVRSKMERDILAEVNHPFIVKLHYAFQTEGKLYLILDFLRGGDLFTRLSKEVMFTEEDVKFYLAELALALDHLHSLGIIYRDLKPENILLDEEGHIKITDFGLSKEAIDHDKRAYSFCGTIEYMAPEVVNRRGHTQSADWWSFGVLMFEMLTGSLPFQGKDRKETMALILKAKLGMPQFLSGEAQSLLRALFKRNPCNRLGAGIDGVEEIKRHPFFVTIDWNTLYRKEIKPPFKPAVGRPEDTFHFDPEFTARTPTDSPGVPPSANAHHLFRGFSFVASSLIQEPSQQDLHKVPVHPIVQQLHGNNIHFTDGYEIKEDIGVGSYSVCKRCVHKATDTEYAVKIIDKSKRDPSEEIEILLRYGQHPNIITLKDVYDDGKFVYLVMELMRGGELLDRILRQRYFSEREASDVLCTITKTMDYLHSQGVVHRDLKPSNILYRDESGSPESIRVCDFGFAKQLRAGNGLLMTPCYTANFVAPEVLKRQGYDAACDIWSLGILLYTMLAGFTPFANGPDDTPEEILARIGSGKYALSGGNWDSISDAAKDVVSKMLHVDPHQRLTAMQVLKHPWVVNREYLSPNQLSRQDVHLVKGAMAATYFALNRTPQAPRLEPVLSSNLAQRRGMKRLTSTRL
Serine/threonine-protein kinase TBK1 (Homo sapiens), sequence (Q9UHD2 whole entry): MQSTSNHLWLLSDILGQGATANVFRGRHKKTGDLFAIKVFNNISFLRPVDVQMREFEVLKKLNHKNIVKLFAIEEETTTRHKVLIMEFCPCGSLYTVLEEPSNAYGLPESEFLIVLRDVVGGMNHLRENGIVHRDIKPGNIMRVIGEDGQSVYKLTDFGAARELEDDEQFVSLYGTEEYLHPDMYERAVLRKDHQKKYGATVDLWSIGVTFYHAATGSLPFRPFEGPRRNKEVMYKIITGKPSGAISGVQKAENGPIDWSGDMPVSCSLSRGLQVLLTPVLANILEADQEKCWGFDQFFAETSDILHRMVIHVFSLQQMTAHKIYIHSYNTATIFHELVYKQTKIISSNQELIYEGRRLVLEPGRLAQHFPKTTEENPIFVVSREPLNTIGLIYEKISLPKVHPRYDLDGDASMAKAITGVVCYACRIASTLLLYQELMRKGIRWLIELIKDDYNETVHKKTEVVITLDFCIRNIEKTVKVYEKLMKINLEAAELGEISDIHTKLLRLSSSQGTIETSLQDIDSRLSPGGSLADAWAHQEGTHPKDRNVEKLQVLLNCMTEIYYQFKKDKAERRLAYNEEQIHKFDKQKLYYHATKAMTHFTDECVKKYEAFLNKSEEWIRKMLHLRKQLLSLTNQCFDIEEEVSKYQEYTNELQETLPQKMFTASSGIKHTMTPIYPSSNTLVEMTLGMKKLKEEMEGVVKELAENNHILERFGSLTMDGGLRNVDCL
Interleukin-1 receptor-associated kinase 1 (Homo sapiens), sequence (P51617 whole entry, looked up): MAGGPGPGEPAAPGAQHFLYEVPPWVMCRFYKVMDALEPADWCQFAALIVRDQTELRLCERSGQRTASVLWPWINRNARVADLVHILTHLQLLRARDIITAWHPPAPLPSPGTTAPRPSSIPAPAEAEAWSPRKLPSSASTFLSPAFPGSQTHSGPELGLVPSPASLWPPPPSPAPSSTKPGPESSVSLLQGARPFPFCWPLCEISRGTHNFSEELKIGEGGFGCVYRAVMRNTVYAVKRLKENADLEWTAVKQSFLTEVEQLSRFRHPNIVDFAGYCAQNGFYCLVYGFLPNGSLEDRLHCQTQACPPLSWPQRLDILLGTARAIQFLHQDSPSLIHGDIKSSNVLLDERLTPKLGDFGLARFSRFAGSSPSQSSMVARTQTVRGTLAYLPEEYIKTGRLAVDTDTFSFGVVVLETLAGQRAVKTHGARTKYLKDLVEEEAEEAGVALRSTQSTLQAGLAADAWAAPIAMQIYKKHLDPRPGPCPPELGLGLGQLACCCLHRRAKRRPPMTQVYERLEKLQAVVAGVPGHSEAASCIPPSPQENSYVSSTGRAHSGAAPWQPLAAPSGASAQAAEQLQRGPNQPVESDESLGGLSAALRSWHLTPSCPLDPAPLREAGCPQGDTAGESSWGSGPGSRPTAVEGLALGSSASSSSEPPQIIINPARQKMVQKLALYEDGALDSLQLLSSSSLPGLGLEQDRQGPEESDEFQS
Serine/threonine-protein kinase tousled-like 1 (Homo sapiens), sequence (Q9UKI8 whole entry): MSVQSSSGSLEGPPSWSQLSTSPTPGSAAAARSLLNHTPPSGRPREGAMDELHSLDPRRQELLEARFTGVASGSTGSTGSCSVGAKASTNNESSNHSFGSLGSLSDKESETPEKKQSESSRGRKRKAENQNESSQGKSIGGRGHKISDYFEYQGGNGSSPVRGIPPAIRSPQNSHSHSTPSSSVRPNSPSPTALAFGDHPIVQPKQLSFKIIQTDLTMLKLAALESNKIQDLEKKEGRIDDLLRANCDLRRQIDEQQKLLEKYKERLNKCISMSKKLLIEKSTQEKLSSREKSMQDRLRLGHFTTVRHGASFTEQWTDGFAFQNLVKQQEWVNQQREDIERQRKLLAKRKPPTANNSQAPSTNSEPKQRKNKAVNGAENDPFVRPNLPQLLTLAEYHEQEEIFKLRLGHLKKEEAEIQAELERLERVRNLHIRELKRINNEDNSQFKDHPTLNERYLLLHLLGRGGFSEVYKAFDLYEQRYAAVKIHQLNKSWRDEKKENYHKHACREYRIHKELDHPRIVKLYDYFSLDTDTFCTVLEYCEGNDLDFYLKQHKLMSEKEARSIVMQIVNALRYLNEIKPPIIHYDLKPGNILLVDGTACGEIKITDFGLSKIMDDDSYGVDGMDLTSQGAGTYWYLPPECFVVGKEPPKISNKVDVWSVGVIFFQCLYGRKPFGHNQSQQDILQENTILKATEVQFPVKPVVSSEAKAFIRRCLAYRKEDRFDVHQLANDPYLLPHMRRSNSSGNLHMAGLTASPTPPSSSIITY
Mitogen-activated protein kinase 3 (Homo sapiens), sequence (P27361 whole entry, canonical isoform): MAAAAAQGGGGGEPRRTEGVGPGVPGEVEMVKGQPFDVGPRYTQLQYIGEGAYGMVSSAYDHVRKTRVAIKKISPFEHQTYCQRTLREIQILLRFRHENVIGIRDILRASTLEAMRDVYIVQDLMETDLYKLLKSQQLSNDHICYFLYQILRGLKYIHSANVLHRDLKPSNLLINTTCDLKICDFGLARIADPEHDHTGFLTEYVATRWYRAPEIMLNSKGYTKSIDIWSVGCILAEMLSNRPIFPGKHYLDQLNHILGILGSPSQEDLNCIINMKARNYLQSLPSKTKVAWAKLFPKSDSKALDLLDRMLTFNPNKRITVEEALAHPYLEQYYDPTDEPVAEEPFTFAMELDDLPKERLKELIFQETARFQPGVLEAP
Mast/stem cell growth factor receptor Kit (Homo sapiens), P10721 [V559D], sequence (P10721 whole entry V559D): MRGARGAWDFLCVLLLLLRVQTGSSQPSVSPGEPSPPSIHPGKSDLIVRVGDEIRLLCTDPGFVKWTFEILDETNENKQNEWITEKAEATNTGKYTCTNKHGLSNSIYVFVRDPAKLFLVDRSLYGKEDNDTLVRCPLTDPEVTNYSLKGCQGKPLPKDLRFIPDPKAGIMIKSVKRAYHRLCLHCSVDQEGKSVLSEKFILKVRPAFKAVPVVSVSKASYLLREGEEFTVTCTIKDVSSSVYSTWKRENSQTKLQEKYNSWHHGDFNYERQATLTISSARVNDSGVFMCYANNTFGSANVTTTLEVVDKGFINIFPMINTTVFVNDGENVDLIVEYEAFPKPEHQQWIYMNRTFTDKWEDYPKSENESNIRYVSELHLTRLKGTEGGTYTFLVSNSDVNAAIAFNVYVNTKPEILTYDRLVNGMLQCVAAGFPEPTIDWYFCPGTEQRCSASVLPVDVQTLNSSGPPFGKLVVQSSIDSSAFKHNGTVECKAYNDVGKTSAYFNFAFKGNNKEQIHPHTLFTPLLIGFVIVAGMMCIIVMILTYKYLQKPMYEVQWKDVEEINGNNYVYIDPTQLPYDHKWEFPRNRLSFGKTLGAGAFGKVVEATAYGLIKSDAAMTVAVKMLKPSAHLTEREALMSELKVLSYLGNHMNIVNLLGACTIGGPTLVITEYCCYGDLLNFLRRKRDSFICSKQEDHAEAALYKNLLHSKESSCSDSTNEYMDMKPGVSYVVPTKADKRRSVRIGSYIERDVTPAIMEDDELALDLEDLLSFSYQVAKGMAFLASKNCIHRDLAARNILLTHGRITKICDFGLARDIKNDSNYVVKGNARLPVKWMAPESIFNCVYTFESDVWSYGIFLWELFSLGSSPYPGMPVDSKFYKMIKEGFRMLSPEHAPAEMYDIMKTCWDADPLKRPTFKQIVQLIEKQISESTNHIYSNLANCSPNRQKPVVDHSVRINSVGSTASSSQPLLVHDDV
Bone morphogenetic protein receptor type-1B (Homo sapiens), sequence (O00238 whole entry): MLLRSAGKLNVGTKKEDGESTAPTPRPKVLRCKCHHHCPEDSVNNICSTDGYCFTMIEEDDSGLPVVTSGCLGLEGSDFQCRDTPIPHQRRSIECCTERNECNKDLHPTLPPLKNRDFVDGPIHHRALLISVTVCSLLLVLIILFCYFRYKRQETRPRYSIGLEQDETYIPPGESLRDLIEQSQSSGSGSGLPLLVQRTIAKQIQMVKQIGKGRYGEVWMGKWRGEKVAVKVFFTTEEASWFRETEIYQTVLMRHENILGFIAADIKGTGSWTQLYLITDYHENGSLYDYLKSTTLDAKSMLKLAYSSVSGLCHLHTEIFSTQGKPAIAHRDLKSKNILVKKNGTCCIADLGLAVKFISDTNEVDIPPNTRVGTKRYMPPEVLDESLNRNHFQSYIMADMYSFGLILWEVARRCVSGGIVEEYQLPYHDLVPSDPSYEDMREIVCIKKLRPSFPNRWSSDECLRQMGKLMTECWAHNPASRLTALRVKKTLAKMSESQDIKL
Mast/stem cell growth factor receptor Kit (Homo sapiens), sequence (P10721 whole entry): as the sequence (P10721 whole entry V559D) above, with D559V counted along it

Cc1noc([C@H]2C[C@@H](c3ccc(C(F)(F)F)cc3)CN(C(=O)N3CCS(=O)(=O)C3)C2)n1 [BAY-448]
inactive: residual activity [1] 100% | residual activity [2] 100% | residual activity [3] 100% | residual activity [4] 100% | residual activity [5] 100% | residual activity [6] 68% | residual activity [7] 100% | residual activity [8] 100% | residual activity [9] 100% | residual activity [10] 99% | residual activity [11] 90% | residual activity [12] 100% | residual activity [13] 100% | residual activity [14] 89% | residual activity [15] 83% | residual activity [16] 100% | residual activity [17] 100% | residual activity [18] 77% | residual activity [19] 100% | inhibition [20] -4.12% | residual activity [21] 100% | residual activity [22] 100% | residual activity [23] 65% | residual activity [24] 87% | residual activity [25] 98% | residual activity [26] 100% | residual activity [27] 100% | residual activity [28] 100% | residual activity [29] 100% | residual activity [30] 66% | inhibition [31] 3.61% | residual activity [32] 100% | residual activity [33] 100% | residual activity [34] 100% | residual activity [35] 100% | residual activity [36] 100% | residual activity [37] 100%

O=C(N1CCS(=O)(=O)CC1)N1C[C@H](c2ccc(OC(F)(F)F)cc2)C[C@H](c2nc(C3CC3)no2)C1 [BAY-386]
inactive: residual activity [1] 100% | residual activity [2] 100% | residual activity [3] 99% | residual activity [4] 100% | residual activity [5] 90% | residual activity [6] 94% | residual activity [7] 100% | residual activity [8] 100% | residual activity [9] 94% | residual activity [10] 100% | residual activity [11] 100% | residual activity [12] 100% | residual activity [13] 100% | residual activity [14] 100% | residual activity [15] 80% | residual activity [16] 97% | residual activity [17] 100% | residual activity [18] 58% | residual activity [19] 100% | inhibition [20] -5% | residual activity [21] 95% | residual activity [22] 94% | residual activity [23] 90% | residual activity [24] 100% | residual activity [25] 88% | residual activity [26] 100% | residual activity [27] 93% | residual activity [28] 100% | residual activity [29] 100% | residual activity [30] 100% | inhibition [31] -7.39% | residual activity [32] 82% | residual activity [33] 92% | residual activity [34] 100% | residual activity [35] 100% | residual activity [36] 97% | residual activity [37] 95%
